Experimental data as given in publication PMC7822030, “Hybrid Inhibitors of DNA Gyrase A and B: Design, Synthesis and Evaluation” (Pharmaceutics, 2020).
Where two headings read alike, the source gives them in different places.

Columns and labels:
[1] = system: E. coli ATCC 25922; assay: MIC broth microdilution, E. coli ATCC 25922; assay type: cell-based; settings: Escherichia coli, ATCC25922, read-out: MIC E. coli ATCC #
Excerpt: (§1) E. coli MG1655 originated from the laboratory collection of Dr. Csaba Pál. […] E. coli K-12 BW25113 single-gene knockout mutant lines ΔdapF, ΔmrcB, ΔsurA, ΔacrB and ΔtolC originated form the Keio collection copy owned by the laboratory of Dr. Csaba Pál.
(§2) Cation-adjusted Mueller Hinton II broth (MHBII) was used for growth of the bacteria under standard laboratory conditions, for antimicrobial susceptibility tests, and for selection of resistant variants. To prepare the MHBII broth, 22 g MHBII powder (containing 3 g beef extract, 17.5 g acid hydrolysate of casein, 1.5 g starch; Becton, Dickinson and Co., Franklin Lakes, NJ, USA) was dissolved in 1 L water. MHBII agar was prepared by addition of 14 g agar (Bacto; Molar Chemicals, Halásztelek, Hungary) to 1 L broth.
(§3) Minimum inhibitory concentrations (MICs) were determined using a standard serial broth microdilution technique, according to the Clinical and Laboratory Standards Institute guidelines. […] For Enterococcus sp., the cells were plated in BHI agar plates, and BHI broth was used to determine the MICs. […] Following the dilutions, each well was seeded with 5 × 10^4 bacterial cells. Each measurement was performed in three parallel replicates, and to avoid possible edge effects in the microwell plates, the outside rows (A, H) were filled with sterile medium. Following the inoculations, the plates were covered with the lids and wrapped in polyethylene plastic bags, to minimize evaporation but to allow O2 transfer. […] After incubation, the OD600 of each well was measured using a microplate reader (Synergy 2; Biotek, Winooski, VT, USA).

[2] = molecular target: T1, E. coli topoisomerase IV (Escherichia coli, UniProt P0AFI2+P20083); assay: E. coli topoisomerase IV relaxation assay; assay type: biochemical
T1 construct: purchased Inspiralis, Norwich, UK
Description: (§4) The assay for determination of the IC50 values was performed according to previously reported procedures.
(§5) Briefly, inhibitory activities were determined using supercoiling (for DNA gyrase) and relaxation (for topoisomerase IV) assay kits (Inspiralis, Norwich, UK) on streptavidin-coated 96-well microtiter plates from Thermo Scientific Pierce (Thermo Fisher Scientific, Waltham, MA, USA). First, the plates were rehydrated with Wash Buffer and the biotinylated oligonucleotide TFO1 was then immobilized. After washing off the unbound oligonucleotide with Wash Buffer, the enzyme assay was performed. Into each well was added 24 µL of mixture containing 6 µL of Assay Buffer (containing ATP), 0.75 µL of relaxed (for E. coli DNA gyrase supercoiling assay) or supercoiled (for E. coli topoisomerase IV relaxation assay) pNO1 plasmid and 17.25 µL of water. Additionally, 3 µL of a solution of the inhibitor in 10% DMSO containing 0.008% Tween 20 and 3 µL of enzyme (1.5 U) in Dilution Buffer were also added to the wells. […] The TF buffer was added to terminate the enzymatic reaction and after additional incubation for 30 min at room temperature, which allowed for triplex formation (biotin–oligonucleotide–plasmid), the unbound plasmid was washed off using TF buffer. Promega Diamond dye in T10 buffer was then added. […] Here, the compounds were diluted using 2-fold serial dilution steps of the given compound. GraphPad Prism 6.0 software was used to calculate the IC50 values, which were determined in at least two independent measurements, and their means are given as the final result. […] Dose-response curves can be found in Supplementary Materials.

[3] = system: A. baumannii ATCC 17978; assay: MIC broth microdilution, A. baumannii; assay type: cell-based; settings: Acinetobacter baumannii, ATCC17978, read-out: MIC A. baumannii ATCC #
Excerpt: as §1, §2, §3

[4] = system: E. coli BW25113 ΔtolC; assay type: cell-based, Escherichia coli
Excerpt: as §1, §2, §3

[5] = system: E. coli BW25113 ΔmrcB; assay type: cell-based, Escherichia coli
Excerpt: as §1, §2, §3

[6] = system: E. coli BW25113 ΔdapF; assay type: cell-based, Escherichia coli
Excerpt: as §1, §2, §3

[7] = system: E. coli BW25113 ΔacrB; assay type: cell-based, Escherichia coli
Excerpt: as §1, §2, §3

[8] = system: E. coli BW25113 ΔsurA; assay type: cell-based, Escherichia coli
Excerpt: as §1, §2, §3

[9] = system: P. aeruginosa ATCC 27863; assay: MIC broth microdilution, P. aeruginosa; assay type: cell-based; settings: Pseudomonas aeruginosa
Excerpt: as §1, §2, §3

[10] = system: E. coli MG1655 WT; assay: MIC, E. coli MG1655 wild-type with PAβN; assay type: cell-based, Escherichia coli
Excerpt: as §1, §2
as §3, with “USA). […]” for “USA).”

[11] = system: E. coli MG1655 GyrB R136C; assay: microbe, parasite or virus in culture; assay type: cell-based, Escherichia coli
Excerpt: as §1, §2, §3
(§6) These mutated amino acids are the most common sites for target-based resistance in E. coli.

[12] = system: E. coli MG1655 GyrA S83L, D87N ParC S80I, E84G; assay: microbe, parasite or virus in culture; assay type: cell-based, Escherichia coli
Excerpt: as §1, §2, §3, §6

[13] = system: K. pneumoniae ATCC 10031; assay: MIC broth microdilution, K. pneumoniae; assay type: cell-based; settings: Klebsiella pneumoniae, ATCC10031, read-out: MIC K. pneumoniae ATCC #
Excerpt: as §1, §2, §3

[14] = system: E. coli BW25113 WT; assay: MIC, E. coli BW25113 wild-type; assay type: cell-based; settings: Escherichia coli, BW25113, read-out: Minimum Inhibitory Concentration E. coli BW# WT
Excerpt: as §1, §2, §3

[15] = system: E. cloacae spp. cloacae ATCC 13047; assay: MIC broth microdilution, E. cloacae; assay type: cell-based, Enterobacter cloacae; settings: Enterobacter cloacae, ATCC13047, read-out: MIC E. cloacae spp. cloacae ATCC #
[16] = molecular target: T2, E. coli DNA gyrase (Escherichia coli, UniProt P0AES4+P0AES6); assay: E. coli DNA gyrase supercoiling assay; assay type: biochemical
T2 construct: purchased Inspiralis, Norwich, UK
Description: as §4, §5

[17] = molar conversion in parentheses
[18] = in the presence of 50 µg/mL PAβN

**Q.** What does the source list for `Cc1[nH]c(C(=O)Nc2nc3ccc(C(=O)NCCOCCN4CCN(c5cc6c(cc5F)c(=O)c(C(=O)O)cn6C5CC5)CC4)cc3s2)c(Cl)c1Cl.Cl` [Compound 11a, 4-(3-Carboxy-1-cyclopropyl-6-fluoro-4-oxo-1,4-dihydroquinolin-7-yl)-1-(2-(2-(2-(3,4-dichloro-5-methyl-1H-pyrrole-2-carboxamido)benzo[d]thiazole-6-carboxamido)ethoxy)ethyl)piperazin-1-ium chloride]?
**A.** melting point: 187 to 190 °C; MIC ([1]; broth microdilution, 18 h): 32 µg/mL; MIC [1, 17]: 41.5 µM; IC50 [2]: > 10000 nM; Inhibition of topoisomerase IV (in words) ([2]; relaxation assay): lack of activity; MIC ([3]; broth microdilution, 18 h): > 64 µg/mL; MIC [3, 17]: > 82.9 µM; Minimum Inhibitory Concentration E. coli BW25113 ΔtolC ([4]; efflux pump mutant): 0.5 µg/mL; Minimum Inhibitory Concentration E. coli BW25113 ΔtolC [4, 17]: (0.65 µM); Minimum Inhibitory Concentration E. coli BW25113 ΔmrcB ([5]; impaired cell-wall mutant): 32 µg/mL; Minimum Inhibitory Concentration E. coli BW25113 ΔmrcB [5, 17]: (41.5 µM); Minimum Inhibitory Concentration E. coli BW25113 ΔdapF ([6]; impaired cell-wall mutant): 32 µg/mL; Minimum Inhibitory Concentration E. coli BW25113 ΔdapF [6, 17]: (41.5 µM); Minimum Inhibitory Concentration E. coli BW25113 ΔacrB ([7]; efflux pump mutant): 32 µg/mL; Minimum Inhibitory Concentration E. coli BW25113 ΔacrB [7, 17]: (41.5 µM); Minimum Inhibitory Concentration E. coli BW25113 ΔsurA ([8]; impaired cell-wall mutant): 16 µg/mL; Minimum Inhibitory Concentration E. coli BW25113 ΔsurA [8, 17]: (20.7 µM); MIC ([9]; ATCC27863, 18 h, read-out: MIC P. aeruginosa ATCC #): > 64 µg/mL; MIC ([9]; ATCC27863, read-out: MIC P. aeruginosa ATCC #, molar conversion in parentheses, read-out: MIC P. aeruginosa ATCC 27863): > 82.9 µM; MIC ([10]; Escherichia coli, MG1655, read-out: Minimum Inhibitory Concentration E. coli MG# WT, 50 µg/mL PAβN, molar conversion in parentheses): 0.65 µM; Minimum Inhibitory Concentration E. coli MG1655 WT [10, 18]: 0.5 µg/mL; MIC ([11]; Escherichia coli, MG1655, read-out: Minimum Inhibitory Concentration E. coli MG# GyrB R#C): 0.65 µM; Minimum Inhibitory Concentration E. coli MG1655 GyrB R136C [11, 18]: 0.5 µg/mL; MIC ([12]; Escherichia coli, MG1655, read-out: Minimum Inhibitory Concentration E. coli MG# GyrA S83L, D87N ParC S80I, E84G): 10.4 µM; Minimum Inhibitory Concentration E. coli MG1655 GyrA S83L, D87N ParC S80I, E84G [12, 18]: 8 µg/mL; MIC ([13]; broth microdilution, 18 h): 4 µg/mL; MIC [13, 17]: 5.18 µM; MIC [14, 17]: 41.5 µM; MIC ([14]; wild-type): 32 µg/mL; MIC ([15]; broth microdilution, 18 h): 64 µg/mL; MIC [15, 17]: 82.9 µM; IC50 [16]: 130 ± 30 nM
